# From patent US7696246B2 (Ligand Pharmaceuticals Incorporated, priority 1999, dated 2010)
# Like-named read-outs stand apart in the source and are kept apart here.
# Key:
# PR [1] = target: T1, PR (Homo sapiens, UniProt P06401); test: PR competitive binding assay; details: Cheng-Prusoff
# T1 sequence (P06401 1-933): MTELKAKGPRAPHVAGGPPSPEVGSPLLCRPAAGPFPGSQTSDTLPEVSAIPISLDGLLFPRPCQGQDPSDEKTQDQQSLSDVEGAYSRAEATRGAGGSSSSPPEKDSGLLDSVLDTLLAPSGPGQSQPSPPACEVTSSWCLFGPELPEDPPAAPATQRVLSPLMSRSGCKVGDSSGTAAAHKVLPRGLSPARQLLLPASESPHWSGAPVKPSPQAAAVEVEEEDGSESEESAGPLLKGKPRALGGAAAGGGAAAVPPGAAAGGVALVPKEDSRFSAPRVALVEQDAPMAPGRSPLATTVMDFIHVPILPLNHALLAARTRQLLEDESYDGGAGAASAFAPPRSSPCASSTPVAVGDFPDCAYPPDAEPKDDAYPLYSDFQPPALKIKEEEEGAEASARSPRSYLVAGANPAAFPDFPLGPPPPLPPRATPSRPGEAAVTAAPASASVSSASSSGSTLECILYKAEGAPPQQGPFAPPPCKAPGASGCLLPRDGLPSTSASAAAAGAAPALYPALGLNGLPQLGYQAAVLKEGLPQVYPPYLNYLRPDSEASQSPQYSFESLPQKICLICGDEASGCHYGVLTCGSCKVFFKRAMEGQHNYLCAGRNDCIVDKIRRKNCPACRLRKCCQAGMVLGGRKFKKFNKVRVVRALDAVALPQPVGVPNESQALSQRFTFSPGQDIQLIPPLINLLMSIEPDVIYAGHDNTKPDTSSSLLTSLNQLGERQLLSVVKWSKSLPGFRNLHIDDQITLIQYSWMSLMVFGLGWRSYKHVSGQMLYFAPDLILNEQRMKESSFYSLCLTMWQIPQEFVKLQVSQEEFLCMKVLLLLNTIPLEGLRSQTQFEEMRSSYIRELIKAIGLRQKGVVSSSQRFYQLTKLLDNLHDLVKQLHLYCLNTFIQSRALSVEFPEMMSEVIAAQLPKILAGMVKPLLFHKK
# Protocol: (§1) After correcting for non-specific binding, IC50 values were determined. […] The IC50 value was determined graphically from a log-logit plot of the data. The Ki values were determined by application of the Cheng-Prusoff equivuation to the IC50 values, the labeled ligand concentration and the Kd of the labeled ligand.
# PR [2] = target: T1, PR; test: Co-transfection assay, PR antagonist activity (CV-1 cells, in presence of progesterone); type: cell-based; design: expressed in transfected cells; host or cells: CV-1 cells; details: for PR Antagonist CV-1 Cells Efficacy (%): percent maximal inhibition, progesterone at its EC50
# PR [3] = target: T1, PR; test: Co-transfection assay, PR agonist activity (CV-1 cells); type: cell-based; design: expressed in transfected cells; host or cells: CV-1 cells; details: for EC50: agonist potency EC50; for PR Agonist CV-1 Cells Efficacy (%): percent maximal response relative to reference agonist progesterone
# human AR [4] = target: T2, human AR (Homo sapiens, UniProt P10275); test: AR whole cell competitive binding assay (COS-1 cells, 3H-DHT); details: 1 nM 3H-DHT, Cheng-Prusoff
# T2 sequence (P10275 1-920): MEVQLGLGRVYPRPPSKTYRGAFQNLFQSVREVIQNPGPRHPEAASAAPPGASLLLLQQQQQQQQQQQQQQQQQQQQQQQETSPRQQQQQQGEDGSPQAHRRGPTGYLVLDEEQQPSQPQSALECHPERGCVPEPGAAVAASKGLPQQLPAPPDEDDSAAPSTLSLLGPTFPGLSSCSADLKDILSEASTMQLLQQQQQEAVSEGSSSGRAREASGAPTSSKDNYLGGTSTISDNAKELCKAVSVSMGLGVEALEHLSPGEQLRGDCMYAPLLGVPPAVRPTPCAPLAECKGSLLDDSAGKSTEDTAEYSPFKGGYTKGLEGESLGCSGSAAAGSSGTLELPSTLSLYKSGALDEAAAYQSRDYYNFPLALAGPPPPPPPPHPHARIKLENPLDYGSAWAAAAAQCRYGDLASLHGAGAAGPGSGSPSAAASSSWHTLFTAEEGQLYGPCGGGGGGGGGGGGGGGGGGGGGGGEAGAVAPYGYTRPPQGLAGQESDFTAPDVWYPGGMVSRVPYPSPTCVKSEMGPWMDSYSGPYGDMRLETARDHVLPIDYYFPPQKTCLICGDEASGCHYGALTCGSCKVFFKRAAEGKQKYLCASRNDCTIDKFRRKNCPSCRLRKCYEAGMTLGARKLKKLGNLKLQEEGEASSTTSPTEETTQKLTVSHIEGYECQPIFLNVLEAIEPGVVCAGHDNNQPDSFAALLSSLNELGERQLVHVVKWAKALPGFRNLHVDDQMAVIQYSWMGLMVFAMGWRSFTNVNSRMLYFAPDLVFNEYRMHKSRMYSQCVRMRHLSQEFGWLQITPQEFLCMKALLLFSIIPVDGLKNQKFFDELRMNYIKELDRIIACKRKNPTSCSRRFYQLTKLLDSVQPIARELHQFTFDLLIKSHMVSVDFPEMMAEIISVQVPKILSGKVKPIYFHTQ
# Protocol: AR Binding: For the whole cell binding assay, COS-1 cells in 96-well microtiter plates containing DMEM-10% FBS were transfected as described above with the following plasmid DNA: pRShAR (2 ng/well), pRS-β-Gal (50 ng/well) and pGEM (48 ngcwell). Six hours after transfection, media was removed, the cells were washed with PBS and fresh media was added. The next day, the media was changed to DMEM-serum free to remove any endogenous ligand that might be complexed with the receptor in the cells.
# Three replicates were used for each sample. […] The remaining media was removed, the cells were washed three times with PBS to remove unbound ligand, and cells were lysed with a Triton X-100-based buffer.
# For the saturation analyses, the difference between the total binding and the nonspecific binding, normalized by the β-Gal rate, was defined as specific binding. […] The Ki values were determined by application of the Cheng-Prusoff equation to the IC50 values, where:
# as §1
# human AR [5] = target: T2, human AR; test: Co-transfection assay, AR antagonist activity (CV-1 cells, in presence of DHT); type: cell-based; details: for AR Antagonist CV-1 Cells Efficacy (%): percent maximal inhibition, DHT at its EC50; for IC50: read-out: AR Antagonist CV-1 Cells Potency
# human AR [6] = target: T2, human AR; test: Co-transfection assay, AR agonist activity (CV-1 cells, MTV-LUC reporter); type: cell-based; details: CV-1 cells; for EC50: agonist potency EC50
SMILES,melting point [°C],Ki (PR [1]) [nM],IC50 (PR [2]) [nM],PR Antagonist CV-1 Cells Efficacy (%) (PR [2]),EC50 (PR [3]) [nM],PR Agonist CV-1 Cells Efficacy (%) (PR [3]),Ki (human AR [4]) [nM],AR Antagonist CV-1 Cells Efficacy (%) (human AR [5]),IC50 (human AR [5]) [nM],EC50 (human AR [6]) [nM],IC50 (PR [2]; read-out: PR Antagonist CV-1 Cells Potency) [nM],AR Agonist CV-1 Cells Efficacy (%) (human AR [6]; percent maximal response relative to reference agonist DHT)
CC(C)(O)C(=O)Nc1ccc2c(C(F)(F)F)cc(=O)[nH]c2c1,289 to 291,,,,,,,,,,,
"O=c1cc(C(F)(F)F)c2cc(-c3cccc(F)c3F)ccc2[nH]1 [Compound 725, 6-(2,3-Difluoro)phenyl-4-trifluoromethyl-2(1H)-quinolinone]",,400,149,92,> 10000,"na (na = not active (i.e. efficacy of <20 and potency of >10,000))",> 1000,87%,79,> 10000,,
"CC1(C)OC(=S)Nc2ccc(C3=CCCCC3)cc21 [Compound 689, 6-(1-Cyclohexenyl)-1,4-dihydro-4,4-dimethyl-1,3-benzo[d]oxazin-2-thione]",,23,,47,2700,105%,132,89%,40,> 10000,35,
"CCN(CC(C)(C)C)c1ccc2[nH]c(=O)cc(C(F)(F)F)c2c1 [Compound 242, 6-(N-Ethyl-N-2,2-dimethylpropyl)amino-4-trifluoromethyl-2(1H)-quinolinone]",,70,200,95,> 10000,"na (na = not active (i.e. efficacy of <20 and potency of >10,000))",32,"na (na = not active (i.e. efficacy of <20 and potency of >10,000))",> 10000,2.8,,66
